Data as given in patent US20180369186A1, “METHOD FOR MODULATING AUTOPHAGY AND APPLICATIONS THEREOF” (JAWAHARLAL NEHRU CENTRE FOR ADVANCED SCIENTIFIC RESEARCH, priority 2015, published 2018).
“And” between values parts separate entries of the source, which are not always exact repeats. Equal entries are not always repeated.

Columns and labels:
Atg8 = Atg8 immunolocalization in lace plant; assay type: cell-based, Aponogeton madagascariensis; details: two hours; same modulator concentrations as MDC; control 0.90±0.08
Protocol: Whole leaves are treated for two hours prior to fixation in 100% Methanol at 37° C. and then hydrophilized to 20% methanol by adding distilled water at 60° C. every two minutes for 32 minutes. Samples are then sectioned and placed on a multiwall slide and allowed to air dry for 10 minutes to facilitate membrane permeabilization. Blocking is done for 30 minutes at 37° C. with 4% low fat milk powder in 1× microtubule stabilization buffer MTSB (Modified 2× MTSB stock solution: 15 g PIPES, 1.9 g EDTA, 1.22 g MgSO4*7H2O and 2.5 g KOH—pH 7.0). Primary antibody incubation for anti-rabbit ATG8 (Agrisera, AS14 2769) is done at a 1:1000 dilution in 1× MTSB for 30 minutes at 37° C. Samples are then washed for 5 minutes, 3 times with 1× MTSB. Secondary antibody incubation with Goat anti-rabbit Dylight 488 (Agrisera AS09 633) at a 1:2000 dilution in 1× MTSB is done for 30 minutes at 37° C. and then samples are rinsed as above. Tissues are mounted in Mowiol 4-88 solution (Sigma, 81381) and scanned via confocal microscopy as mentioned above. The mean number of puncta per cell is determined using maximum intensity projections (MIPs) for each replicate. The total number of cells within a field of view are counted manually and the number of puncta are counted automatically using ImageJ.

[1] = tested on: lace plant (Aponogeton madagascariensis) cells; assay: Lace plant leaf MDC staining of punctate structures; assay type: cell-based; details: 2 hours; 5 μM wortmannin, 50 μM Bay11, 1 μM concanamycin A, rapamycin, 50 μM ZPCK; control 0.99±0.12
Protocol: Axenic lace plant cultures are grown in magenta boxes and prepared according to Gunawardena et al. Leaves in the window stage are removed from the corm and rinsed thoroughly with distilled water prior to being sectioned into 2 mm^2 pieces. For starvation treatments, window stage leaves are removed from the plant, placed in distilled water and kept in the dark overnight.
Leaf sections are stained with monodansylcadaverine (MDC; 300 μM) (Sigma, D4008) and simultaneously treated with autophagy modulators for 2 hours in the dark. (1 hour vacuum infiltration at 15 psi). Treatment times, along with stain and modulator applications are optimized using concentration gradients followed by microscopy. The optimized concentrations are 5 μM rapamycin (Enzo Life Sciences (BML A275-0005), 5 μM wortmannin (Santa Cruz Biotechnology, sc-3505), 1 μM concanamycin A (Santa Cruz Biotechnology, sc-202111), 50 μM Bay 11 (Sigma, B5556) and 50 μM ZPCK (Sigma, 860794).
Tissue sections are then rinsed and mounted in distilled water prior to being scanned using a Nikon Eclipse Ti confocal microscope (Nikon 40X/1.30, Plan Fluor, 405 nm excitation and 450/30 nm emission). Areoles in the early phases of PCD are scanned to avoid cellular debris. The mean number of puncta are quantified for each treatment group with a minimum of four independent experiments using NIS Elements Advanced Research software. Additionally, starvation treatment leaves are also exposed to 5 μM, wortmannin, 50 μM Bay11 and 50 μM ZPCK treatments and then qualitatively assessed via confocal microscopy.

[2] = tested on: TH+ dopaminergic neurons in SNpc; assay: MPTP mouse model: TH+ dopaminergic neurons in SNpc (stereology, densitometry, volume); assay type: in vivo, mice
Protocol: As described by Vernice Jackson-Lewis & Serge Przedborski (2007), 23.4 mg/kg MPTP.HCl (equivalent to 20 mg/kg free base) in 10 ml/kg body wt. of saline is administered intraperitoneally (i.p.) for 4 times at 2 h intervals.
All mice are sacrificed 9 days post MPTP administration and brains are processed for immunohistochemistry.
Mice are anaesthetized using Halothane BP (Piramal Healthcare) inhalation and perfused intracardially with normal saline followed by 4% PFA in 0.1 M phosphate buffer, pH 7.4. Brains are removed quickly and post-fixed with 4% PFA for 24 h-48 h at 4° C. Following cryoprotection in 15% and 30% sucrose, 40 μm thick coronal cryosections of midbrain are collected serially on gelatinized slides. Immunoperoxidase labelling protocol as identical to that reported. Briefly, endogenous peroxidase is quenched using H2O2 (0.1%) in methanol (70%), followed by blocking of non-specific staining by buffered solution (3%) of bovine serum albumin for 4 h at room temperature. Sections are incubated with TH primary antibody (1:500) followed by biotin conjugated secondary antibody (1:200 dilution, Vector Laboratories). Tertiary labelling is performed with avidin-biotin complex solution (1:100, Vector Laboratories). Staining is visualized using 3′-3′-diaminobenzidine (0.05%) as a chromogen in a solution of 0.1M acetate imidazole buffer (pH 7.4) and H2O2 (0.1%). Negative controls are processed identically, except that primary antibody is replaced with dilution buffer.
As described by Y. Fu et al., SNpcis delineated using the 4× objective of Olympus BX61 Microscope (Olympus) equipped with Stereo Investigator Software Version 7.2 (MicroBrightField). Stereological quantification is performed using optical fractionator probe with slight modifications(P. A. Alladi et al.). Briefly, every sixth midbrain section containing SNpc is chosen and TH^+ cells are counted under 100× objective, with a regular grid interval of 22500 μm^2 (x=150 μm, y=150 μm) and counting frame with an area of 3600 μm^2 (x=60 μm, y=60 μm) (FIG. 10B). Mounted thickness is determined at every fifth site, averaging to 25 μm. Guard zone 4 μm is applied on either side, thus providing 17 μm of z-dimension within optical dissector. The quantification is performed starting with first anterior appearance of TH^+ neurons in SNpc to caudal most part. The SNpc volume is determined by planimetry (FIG. 10C) and total numbers of neurons according to mean measured thickness are noted.
High magnification images of TH stained nigral DAergic neurons, captured for offline assessment of Tyrosine Hydroxylase (TH) enzyme expression levels=used. Expression intensity is measured using a Windows based image analysis system (Q Win V3, Leica Systems). Cumulative mean is derived from the values obtained from sampling, approximately 200 DAergic neurons per animal. Intensity output is measured on a grey scale of 0-255, where 0 equals intense staining and 255 means absence of staining.
The mice are distributed into three groups' viz., vehicle, MPTP and MPTP+XCT 790 injected respectively. The vehicle group receives intraperitoneal injections of dimethyl sulfoxide (DMSO) injections i.e. the solvent. The MPTP group receives 23.4 mg/kg MPTP.HCl in 10 ml/kg body wt. of saline is administered intraperitoneally for 4 times at 2 h interval. The MPTP+XCT 790 group mice are injected with 5 mg/kg body wt, of XCT 790 dissolved in DMSO, alongside the first MPTP injection. […]

DAergic neurons in SNpc = assay: MPTP mouse model: LC3 and A11 puncta in DAergic neurons of SNpc; assay type: in vivo; details: MPTP treated cohort
Protocol: The sequential immunolabeling procedure is used to co-label the TH and LC3 and/or A11. First, the midbrain sections are equilibrated with 0.1 M PBS (pH 7.4) for 10 min and then incubated with buffered bovine serum albumin (3%) for 4 h to block non-specific epitopes. Then, the sections are incubated in rabbit anti-LC3 antibody (1:1000) and/or anti-oligomer antibody (A11, 1:1000) for 72 h at 4° C. After subsequent washes, the sections are incubated in corresponding fluorescent secondary antibody (1:200) at 4° C., overnight.
Co-labeling with TH is performed on the same sections using rabbit anti-TH antibody (1:500), followed by secondary labeling. PBST (0.01 M, pH 7.4) is used as both working and washing buffer. Sections are then mounted using Vectashield hardset mounting medium.

α-synuclein toxicity = assay: S. cerevisiae α-synuclein toxicity model, growth assay; assay type: cell-based; details: WT α-synuclein-EGFP strain; 50 μM
Protocol: To screen small molecule library LOPAC1280 in S. cerevisiae SNCA toxicity model, working plates containing 50 μM drugs in 1.5% DMSO (190 compounds/plate) are prepared in a 384 well format. WT SNCA-GFP with or without small molecules and untreated WT GFP are grown under optimized conditions (80 μl, 30° C. and 420 rpm) for 36 h in a plate reader (Varioskan Flash, Thermo Scientific) in duplicates with automatic absorbance (A600) recording every 20 min. Growth curves of untreated WT GFP and WT SNCA-GFP strains are plotted and mid to late exponential phase time point of untreated WT GFP strain is chosen as reference for data analysis. Its corresponding time point of untreated and drug treated WT SNCA-GFP strains are plotted separately in a box plot. Small molecules that rescued the growth lag by ≥3 SD units of untreated WT SNCA-GFP strain are considered as ‘Hits’.
Growth assays: In a 384 well plate, appropriate yeast strains are seeded (A600˜0.07) with and without drugs and incubated (80 μl, 30° C. and 420 rpm) in a multiplate reader (Varioskan Flash, Thermo Scientific) for 48 h with automatic absorbance (A600) recording every 20 min. Growth curves are plotted and analyzed using GraphPad Prism.
Induction of α-synuclein-EGFP aggregates: To induce α-synuclein-EGFP aggregates, the corresponding strains are inoculated in SD-Ura medium, Secondary culture is inoculated from primary inoculum and incubated till A600 reaches 0.8/ml. Cells are washed twice with sterile water and aggregates are induced by adding SG-Ura for 12-16 h.
To screen small molecule library LOPAC^1280 in S. cerevisiae α-synuclein toxicity model, working plates containing 50 μM drugs (small molecule) in 1.5% DMSO (190 compounds/plate) are prepared in a 384 well format. WT α-synuclein-EGFP with and without small molecules and untreated WT EGFP are grown under optimized conditions (80 μl, 30° C. and 420 rpm) for 36 h in a plate reader (Varioskan Flash, Thermo Scientific) in duplicates with automatic absorbance (A600) recording every 20 min.
Growth curves of untreated WT EGFP and WI α-synuclein-EGFP strains are plotted and mid to late exponential phase time point of untreated WT EGFP strain is chosen as reference for data analysis. Its corresponding time point of untreated and drug treated WT α-synuclein-EGFP strains are plotted separately in a box plot.
Appropriate yeast strains are seeded (A600 ˜0.07) with or without drugs in a 384-well plate and incubated (420 rpm, 30° C. and 80 μl) in a multiplate reader (Varioskan Flash, Thermo Scientific) for 48 h that records absorbance (A600) automatically for every 20 min. Growth curves are plotted using GraphPad Prism.

Structure (SMILES) | mean number of Atg8 puncta per cell (Atg8) | mean number of punctate structures per cell (MDC) [1] | other results
CO[C@H]1C[C@@H]2CC[C@@H](C)[C@@](O)(O2)C(=O)C(=O)N2CCCC[C@H]2C(=O)O[C@H]([C@H](C)C[C@@H]2CC[C@@H](O)[C@H](OC)C2)CC(=O)[C@H](C)/C=C(\C)[C@@H](O)[C@@H](OC)C(=O)[C@H](C)C[C@H](C)/C=C/C=C/C=C/1C [rapamycin] | 3.52±0.09 | 2.31±0.25 | –
CN1CC=C(c2ccccc2)CC1 [MPTP, methyl-4-phenyl-1,2,3,6-tetrahydropyridine, reference compound] | – | – | reduction in number and health of DA neurons, compared to control ([2]; MPTP 23 mg/kg): ~3 fold; dopaminergic neurons in SNpc lost, MPTP vs Vehicle ([2]; MPTP 23.4 mg/kg, 4 times): ~68%; increase of A11 puncta / aggregates, placebo/vehicle vs MPTP (DAergic neurons in SNpc): ~7 fold and ~6.5 fold
N#C/C(=C\c1ccc(-c2cc(Cl)ccc2Cl)o1)C(=O)Nc1cccc2ncccc12 [Agk2, reference compound] | – | – | rescue of growth lag due to α-synuclein toxicity (α-synuclein toxicity): rescue growth lag
C/C=C/[C@H]1O[C@@](O)([C@@H](C)[C@H](O)[C@H](C)[C@H]2OC(=O)/C(OC)=C/C(C)=C/[C@@H](C)[C@@H](O)[C@@H](CC)[C@@H](O)[C@H](C)C/C(C)=C/C=C/[C@@H]2OC)C[C@@H](O[C@H]2C[C@@H](O)[C@H](OC(N)=O)[C@@H](C)O2)[C@@H]1C [concanamycin A] | 2.43±0.29 | 1.91±0.13 | –
COC[C@H]1OC(=O)c2coc3c2[C@@]1(C)C1=C(C3=O)[C@@H]2CCC(=O)[C@@]2(C)C[C@H]1OC(C)=O [wortmannin] | 0.27±0.025 | 0.26±0.03 | –
